This note sets out measurements from US12503453B2, “USP7 inhibition” (Dana-Farber Cancer Institute, Inc., priority 2018, dated 2025).

The assay addresses DUBs in HEK293AD lysate (Homo sapiens, UniProt Q93009). Description: In situ DUB profiling, competitive ABPP with Bio-Ub-PA/VME and quantitative MS. The class given is binding. Conditions: HEK293 crude cell extract, 5 hours pre-incubation. The protocol: DUB profiling was performed using conditions similar to those in Lawson, A. P. et al. Identification of deubiquitinase targets of isothiocyanates using SILAC-assisted quantitative mass spectrometry. Oncotarget 5, (2017). HEK 293AD cells were lysed using target engagement lysis buffer (50 mM Tris pH 8.0, 150 mM NaCl, 5 mM MgCl2, 0.5 mM EDTA, 0.5% NP-40, 10% glycerol, 1 mM TCEP, protease and phosphatase inhibitors), and the lysate was cleared by centrifugation. […] Excess inhibitor was removed using a 30K Amicon spin filter, then the resulting lysate was incubated with 1 μM each of Biotin-Ub-PA and Biotin-Ub-VME for 90 minutes at RT. SDS was added to a final concentration of 1.2%, and samples were heated to 80° C. for 5 minutes. After cooling to RT, 1×PBS was added to dilute the final SDS concentration to 0.2%. […]
Streptavidin beads were resuspended in 95 μL 100 mM Tris pH 8.0. […] Eluted peptides were then analyzed by nanoLC-MS as described (Ficarro, S. B. et al. Improved electrospray ionization efficiency compensates for diminished chromatographic resolution and enables proteomics analysis of tyrosine signaling in embryonic stem cells. Anal. Chem. 81, 3440-3447 (2009)) with a NanoAcquity UPLC system (Waters, Milford, MA) interfaced to a QExactive HF mass spectrometer (Thermofisher Scientific, San Jose, CA). […]

For the compound `CN1CCN(CCC(=O)Nc2ccc3c(=O)n(CC4(O)CCN(C(=O)[C@@H](CCCNC(=O)c5ccc6c(Cl)c7c(nc6c5)CCCC7)Cc5ccccc5)CC4)cnc3c2)CC1` [compound 6, (S)—N-(4-benzyl-5-(4-hydroxy-4-((7-(3-(4-methylpiperazin-1-yl)propanamido)-4-oxoquinazolin-3(4H)-yl)methyl)piperidin-1-yl)-5-oxopentyl)-9-chloro-5,6,7,8-tetrahydroacridine-3-carboxamide], the “blocking of USP7 labeling by DUB ABPs” value is listed as “significantly blocked USP7 labeling”.
